Measured values taken from patent US20190194179A1, “ANTIBIOTIC COMPOUNDS” (DISCUVA LTD., priority 2016, published 2019).
Where a name gives a salt, the structure may show the parent alone.

tested on: Neisseria gonorrhoeae; assay: EC50 determination: plate-based broth growth assay (absorbance at 600 nm) of Neisseria gonorrhoeae; assay type: cell-based; details: absorbance 600 nm after 20 hours at 37° C./5% CO2, read-out: IC50 (Inhibitory concentration) against Neisseria gonorrhoeae
Experimental: Actively growing Neisseria gonorrhoeae on GC agar (based on; Spence et. al. (2008): Curr. Protoc. Microbiol. 8:4A.1.1-4A.1.26) plates are harvested and transferred to GC broth (based on; Spence et al (2008): Curr. Protoc. Microbiol. 8:4A.1.1-4A.1.26) to generate a liquid stock. This culture is allowed to establish and grow to mid-log phase (at 37° C./5% CO2), finally this culture is diluted (˜10^5 cells/ml) to generate a seed inoculum to establish plate-based broth assays. EC50 values were determined by assaying growth (absorbance read at 600 nm, after 20 hours at 37° C./5% CO2) of Neisseria gonorrhoeae across a 10-point dilution series of the test compound. The EC50 value is determined from transformed data to identify the concentration of compound giving a 50% response relative to control samples (no compound).

`CNCc1nnc(Nc2nc3cc(C(F)(F)F)ccc3o2)o1` [Example 93, N-(5-((Methylamino)methyl)-1,3,4-oxadiazol-2-yl)-5-(trifluoromethyl)benzo[d]oxazol-2-amine] and `CC(=O)N(C)Cc1nnc(Nc2nc3cc(C(F)(F)F)ccc3o2)o1` [Example 94, N-Methyl-N-((5-((5-(trifluoromethyl)benzo[d]oxazol-2-yl)amino)-1,3,4-oxadiazol-2-yl)methyl)acetamide] cannot be ordered by IC50: at most 10 µM for the first, at most 10 µM for the second.

`CN(C)CCNC(=O)c1csc(Nc2nc3cc(Cl)ccc3o2)n1` [Example 97, 2-((5-Chlorobenzo[d]oxazol-2-yl)amino)-N-(2-(dimethylamino)ethyl)thiazole-4-carboxamide] and `NC(=O)c1csc(Nc2nc3ccc(Cl)cc3o2)n1` [Example 33, 2-((6-Chlorobenzo[d]oxazol-2-yl)amino)thiazole-4-carboxamide] cannot be ordered by IC50: at most 1 µM for the first, at most 1 µM for the second.

`FC(F)(F)c1ccc2oc(Nc3nnc(C4CCNCC4)o3)nc2c1` [Example 145, N-(5-(Piperidin-4-yl)-1,3,4-oxadiazol-2-yl)-5-(trifluoromethyl)benzo[d]oxazol-2-amine hydrochloride] and `FC(F)(F)c1ccc2oc(Nc3nnc(C4CC4)o3)nc2c1` [Example 103, N-(5-Cyclopropyl-1,3,4-oxadiazol-2-yl)-5-(trifluoromethyl)benzo[d]oxazol-2-amine] cannot be ordered by IC50: at most 100 µM for the first, at most 0.1 µM for the second.

`Clc1ccc2nc(Nc3ccsn3)oc2c1` [Example 222, 6-Chloro-N-(isothiazol-3-yl)benzo[d]oxazol-2-amine] and `Clc1ccc2nc(Nc3cnoc3)oc2c1` [Example 225, 6-Chloro-N-(isoxazol-4-yl)benzo[d]oxazol-2-amine] cannot be ordered by IC50: at most 1 µM for the first, at most 100 µM for the second.

`O=C(NC1CC1)c1coc(Nc2nc3cc(C(F)(F)F)ccc3o2)n1` [Example 24, N-Cyclopropyl-2-((5-(trifluoromethyl)benzo[d]oxazol-2-yl)amino)oxazole-4-carboxamide] and `O=C(NC1CC1)c1nnc(Nc2nc3ccc(C(F)(F)F)cc3o2)o1` [Example 30, N-Cyclopropyl-5-((6-(trifluoromethyl)benzo[d]oxazol-2-yl)amino)-1,3,4-oxadiazol-2-carboxamide] cannot be ordered by IC50: at most 1 µM for the first, at most 100 µM for the second.

`COc1cc2oc(Nc3nnco3)nc2cc1F` [Example 206, 5-Fluoro-6-methoxy-N-(1,3,4-oxadiazol-2-yl)benzo[d]oxa-zol-2-amine] and `Cc1cc2oc(Nc3nnco3)nc2cc1F` [Example 197, 5-Fluoro-6-methyl-N-(1,3,4-oxadiazol-2-yl)benzo[d]oxazol-2-amine] cannot be ordered by IC50: at most 1 µM for the first, at most 0.1 µM for the second.

`FC(F)(F)c1ccc2oc(Nc3nnc(CN4CCNCC4)o3)nc2c1` [Example 147, N-(5-(Piperazin-1-ylmethyl)-1,3,4-oxadiazol-2-yl)-5-(trifluoromethyl)benzo[d]oxazol-2-amine hydrochloride] and `Cc1nnc(Nc2nc3ccc(C(F)(F)F)cc3o2)o1` [Example 104, N-(5-Methyl-1,3,4-oxadiazol-2-yl)-6-(trifluoromethyl)benzo[d]oxazol-2-amine] cannot be ordered by IC50: at most 100 µM for the first, at most 0.1 µM for the second.

`O=C(c1nnc(Nc2nc3c(Cl)cc(Cl)cc3o2)o1)N1CCCC1` [Example 133, (5-((4,6-Dichlorobenzo[d]oxazol-2-yl)amino)-1,3,4-oxadiazol-2-yl)(pyrrolidin-1-yl)methanone] and `Clc1ccc2nc(Nc3nnc(C4CCCO4)o3)oc2c1` (stereo not shown) [Example 213, 6-Chloro-N-(5-(tetrahydrofuran-2-yl)-1,3,4-oxadiazol-2-yl)benzo[d]oxa-zol-2-amine] cannot be ordered by IC50: at most 1 µM for the first, at most 0.1 µM for the second.

`FC(F)(F)c1ccc2nc(Nc3ncc(N4CCOCC4)s3)oc2c1` [Example 27, N-(5-Morpholinothiazol-2-yl)-6-(trifluoromethyl)benzo[d]oxazol-2-amine] and `CN1CCN(c2cnc(Nc3nc4cc(C(F)(F)F)ccc4o3)s2)CC1` [Example 32, N-(5-(4-Methylpiperazin-1-yl)thiazol-2-yl)-5-(trifluoromethyl)benzo[d]oxazol-2-amine] cannot be ordered by IC50: at most 1 µM for the first, at most 1 µM for the second.

`c1nnc(Nc2nc3ccc(N4CCCCC4)cc3o2)o1` [Example 184, N-(1,3,4-Oxadiazol-2-yl)-6-(piperidin-1-yl)benzo[d]ox-azol-2-amine] and `Fc1ccc2nc(Nc3nnco3)oc2c1` [Example 63, 6-Fluoro-N-(1,3,4-oxadiazol-2-yl)benzo[d]oxazol-2-amine] cannot be ordered by IC50: at most 1 µM for the first, at most 1 µM for the second.

`CC(C)c1nnc(Nc2nc3cc(C(F)(F)F)c(Cl)cc3o2)[nH]1` [Example 139, 6-Chloro-N-(5-isopropyl-4H-1,2,4-triazol-3-yl)-5-(trifluoromethyl)benzo[d]oxazol-2-amine] and `Cc1cc(Nc2nc3cc(C(F)(F)F)c(Cl)cc3o2)no1` [Example 42, 6-Chloro-N-(5-methylisoxazol-3-yl)-5-(trifluoromethyl)benzo[d]oxazol-2-amine] cannot be ordered by IC50: at most 1 µM for the first, at most 0.1 µM for the second.

`CCOC(=O)c1nnc(Nc2nc3cc(C(F)(F)F)c(Cl)cc3o2)o1` [Example 65, Ethyl 5-((6-chloro-5-(trifluoromethyl)benzo[d]oxazol-2-yl)amino)-1,3,4-oxadiazole-2-carboxylate] and `Cc1nc(Nc2nc3cc(C(F)(F)F)ccc3o2)oc1C` [Example 113, N-(4,5-Dimethyloxazol-2-yl)-5-(trifluoromethyl)benzo[d]oxazol-2-amine] cannot be ordered by IC50: at most 0.1 µM for the first, at most 1 µM for the second.

`Clc1ccc2nc(Nc3nnco3)oc2c1` [Example 115, 6-Chloro-N-(1,3,4-oxadiazol-2-yl)benzo[d]oxazol-2-amine] and `Brc1ccc2nc(Nc3nnco3)oc2c1` [Example 179, 6-Bromo-N-(1,3,4-oxadiazol-2-yl)benzo[d]ox-azol-2-amine] cannot be ordered by IC50: at most 1 µM for the first, at most 0.1 µM for the second.

`Clc1ccc2[nH]c(Nc3nc4cnccc4o3)nc2c1` [Example 168, N-(5-Chloro-1H-benzo[d]imidazol-2-yl)oxazolo [4,5-c]pyridin-2-amine] and `Clc1ccc2nc(Nc3nnc(C4CC4)o3)oc2c1` [Example 175, 6-Chloro-N-(5-cyclopropyl-1,3,4-oxadiazol-2-yl)benzo[d]ox-azol-2-amine] cannot be ordered by IC50: at most 1 µM for the first, at most 0.1 µM for the second.

`Clc1cc2nc(Nc3nnco3)oc2cc1Cl` [Example 152, 5,6-Dichloro-N-(1,3,4-oxadiazol-2-yl)benzo[d]oxazol-2-amine] and `FC(F)(F)c1ccc2nc(Nc3nnco3)oc2c1` [Example 114, N-(1,3,4-Oxadiazol-2-yl)-6-(trifluoromethyl)benzo[d]oxazol-2-amine] cannot be ordered by IC50: at most 0.1 µM for the first, at most 1 µM for the second.

`Cc1nnc(Nc2nc3ccc(C(F)(F)F)cc3n2C)o1` [Example 89, 5-Methyl-N-(1-methyl-6-(trifluoromethyl)-1H-benzo[d]imidazol-2-yl)-1,3,4-oxadiazol-2-amine] and `Cc1nnc(Nc2nc3cc(C(F)(F)F)ccc3n2C)o1` [Example 88, 5-Methyl-N-(1-methyl-5-(trifluoromethyl)-1H-benzo[d]imidazol-2-yl)-1,3,4-oxadiazol-2-amine] cannot be ordered by IC50: at most 1 µM for the first, at most 1 µM for the second.

`NC(=O)c1csc(Nc2nc3cc(C(F)(F)F)ccc3o2)n1` [Example 21, 2-((5-(Trifluoromethyl)benzo[d]oxazol-2-yl)amino)thiazole-4-carboxamide] and `Cc1nnc(Nc2nc3c(F)cccc3o2)[nH]1` [Example 124, 4-Fluoro-N-(5-methyl-4H-1,2,4-triazol-3-yl)benzo[d]oxazol-2-amine] cannot be ordered by IC50: at most 1 µM for the first, at most 1 µM for the second.
